# US20240050414A1, “A COMPOSITION FOR USE IN THE TREATMENT OF INFERTILITY” (priority 2020, published 2024)
# How the values were obtained:
# sheep oocytes = conditions: cited from earlier work
# rats [1] = conditions: fed 0.9% of diet for 13 weeks; cited from earlier work
# [2] = test system: bovine embryo development; conditions: cited from earlier work
# [3] = test system: mouse oocytes with mouse sperm; assay: In vitro fertilisation and embryo development to blastocyst; format: cell-based; conditions: Example 6, control PBS
# Protocol: To evaluate this, in vitro fertilisation studies were performed in the presence of the composition at a concentration of 10% and subsequent embryo development examined to blastocyst stage (see FIG. 7).
# 8-OH-G on sperm DNA = assay: Flow cytometric assay of oxidative DNA damage (8-OHG) on sperm DNA; format: cell-based, human
# Protocol: FIG. 3 illustrates evaluating the effect of ergothionine on sperm oxidative DNA damage, wherein sperm were separated from seminal fluid by density gradient centrifugation, washed in sperm wash media, and incubated in multipurpose handling medium for 48 hours in the presence of the cytoprotective and antioxidant compound ergothionine, wherein sperm were fixed in 4% PFA and stained with FITC labelled 8-OHG antibody (2 μg/ml) for 60 mins, washed and analysed by flow cytometry, wherein data were analyzed using FlowJo software and the mean fluorescent intensity (MFI) plotted, wherein statistical analysis was performed using the Wilcoxon signed-rank test, wherein N=6 per group;
# A total of 1×10e6 washed semen samples were fixed by re-suspending the washed sperm cell pellet in 500 μl of 4% paraformaldehyde (Chem Cruz, 281692), pH 7.2 and incubating for 20-30 minutes at RT. Fixed spermatozoa were centrifuged at 2,500×g for 1.5 minutes and washed twice in 500 μl 1% NGS-PBS buffer.
# Measurement of oxidative DNA damage was determined using anti-DNA/RNA [15A3] […]
# ROS and DNA damage are the most significant contributors to male infertility. […] In measuring this parameter, a flow cytometric assay was developed that could quantify the amount of 8-hydroxyguanine (8-OH-G) in the DNA of individual sperm by the use of a specific fluorescently-labelled monoclonal antibody (see FIG. 2).
# sperm = assay: CASA sperm motility assessment; format: cell-based, human; conditions: for maintaining percentage of motile and progressive sperm and VAP: 24 and 48 hour
# Protocol: FIG. 1 illustrates the evaluation of the cytoprotective and antioxidant compound ergothionine for ability to preserve sperm motility and progression, wherein sperm were separated from seminal fluid by density gradient centrifugation, washed in sperm wash media, and incubated in multipurpose handling medium for 48 hours in the presence of antioxidant, wherein path velocity (A) and sperm motility (B) were quantified by CASA, wherein for statistical analysis the log ratio to control was used as the dependent variable in ONEWAY ANOVA with posthoc testing by Dunnet's test (comparisons against a single ‘control’ value only), wherein N>12 per group;
# FIG. 4 illustrates ergothionine effectively maintains sperm motility and progression, wherein sperm were separated from seminal fluid by density gradient centrifugation, washed in sperm wash media and incubated in multipurpose handling medium in the presence of ergothionine at 1 mM for 24 hours (A-C) or 48 hours (D-F) or in the presence of ergothionine at 0.1 mM for 24 hours (G-I) or 48 hours (J-L), wherein sperm motility was analysed using CASA, wherein statistical analysis was performed using the Wilcoxon signed-rank, wherein N=26 per group for ergothionine at 1 mM and N=10 per group for 0.1 mM ergothionine;
# FIG. 8 illustrates a head-to-head comparison of the effect of a commercially available composition and the composition on sperm motility, wherein sperm were separated from seminal fluid by density gradient centrifugation, washed in sperm wash media and incubated in multipurpose handling medium in the presence of the commercially available composition (A,B) and the composition (C,D) for a period of 30 minutes, wherein sperm motility was analysed using CASA, wherein statistical analysis was performed using the Wilcoxon signed-rank test, wherein N=6 per group; and
# Sperm motility assessments were carried out by Computer Assisted Sperm Analysis (CASA) using the Hamilton Thorne software and a Zeiss microscope, following WHO and manufacturers' guidelines. Briefly, semen samples were resuspended using Pasteur pipettes and diluted 1 in 3 in sperm wash media (Irvine Scientific, 9983). […] Motility assessment was evaluated by capturing at least 1000 sperm cell tracks per slide for unprocessed samples and 300 for processed samples. Total cell count (×10e6/ml), percentage immotile (IM), non-progressively motile (NP) and progressively motile (PR) sperm and average path velocity (VAP) for M and PM sperm was recorded for each sample as defined by World Health Organisation (WHO) laboratory manual for the examination and processing of human semen (fifth edition, 2010). […]
# [4] = cited from earlier work
# embryo development = conditions: 0.1 mM; cited from earlier work
# rats [5] = conditions: 2 g/kg; cited from earlier work
compound,measurement,setting,value
C[N+](C)(C)[C@@H](Cc1c[nH]c(=S)[nH]1)C(=O)[O-] [ergothionine],concentrations beneficial for in vitro maturation of sheep oocytes,sheep oocytes,up to 10 mM
same,impact on fertility in rats,rats [1],no negative impact on fertility
same,concentrations beneficial for bovine embryo development,[2],up to 0.1 mM
same,concentrations that negatively affect bovine embryo development,[2],> 500 µM
same,effectiveness of exposed sperm in fertilisation versus PBS,[3],more effective that those exposed to PBS
same,protection against 8-OH-G formation on sperm DNA,"8-OH-G on sperm DNA; ergothionine 0.1 mM, 48 hour, FIG. 3a",ability to protect against 8-OH-G formation on sperm DNA
same,cytoprotective effect against 8-OH-G formation (dose dependence),"8-OH-G on sperm DNA; ergothionine 1 mM vs 0.1 mM, 48 hours, FIG. 3b",even greater cytoprotective effect
same,effects on sperm motility and average path velocity (VAP),"sperm; 48 hours in multipurpose handling medium, FIG. 1",sperm protective properties
same,maintaining percentage of motile and progressive sperm and VAP,"sperm; ergothionine 0.1 mM, p values 0.04 for all parameters",effective at maintaining the percentage of motile and progressive sperm in addition to the speed of the movement (VAP)
same,maintaining percentage of motile and progressive sperm and VAP,"sperm; ergothionine 1 mM, p values 0.002 for all parameters",effective at maintaining the percentage of motile and progressive sperm in addition to the speed of the movement (VAP)
same,toxicity / effect on sperm motility and progression,"sperm; ergothionine 1 mM, 48 hour","effective and non-toxic, with no negative effect on sperm motility and progression"
same,water solubility,[4],water soluble
same,safety for embryo development,embryo development,safe for embryo development
same,adverse effects in rats,rats [5],no adverse effects observed
